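Method: 48-hour compound exposure of cells in 96-well plates, five concentrations, linear interpolation of endpoints. Here, GI50 denotes the concentration required for 50% inhibition of growth. The concentration for full growth arrest is given as TGI.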
How the values were obtained:
Experiment in all cases: NCI anticancer screen, dose series, 48 h
786-0 renal = system: 786-0 renal
A498 renal = system: A498 renal
A549 NSCLC = system: A549 NSCLC
ACHN renal = system: ACHN renal
BT-549 breast = system: BT-549 breast
CAKI-1 renal = system: CAKI-1 renal
CCRF-CEM leukemia = system: CCRF-CEM leukemia
COLO 205 colon = system: COLO 205 colon
DU-145 prostate = system: DU-145 prostate
HCC-2998 colon = system: HCC-2998 colon
HCT-116 colon = system: HCT-116 colon
HCT-15 colon = system: HCT-15 colon
HL-60(TB) leukemia = system: HL-60(TB) leukemia
HOP-62 NSCLC = system: HOP-62 NSCLC
HOP-92 NSCLC = system: HOP-92 NSCLC
HS 578T breast = system: HS 578T breast
HT29 colon = system: HT29 colon
K-562 leukemia = system: K-562 leukemia
KM12 colon = system: KM12 colon
LOX IMVI melanoma = system: LOX IMVI melanoma
M14 melanoma = system: M14 melanoma
MALME-3M melanoma = system: MALME-3M melanoma
MCF7 breast = system: MCF7 breast
MDA-MB-231 breast = system: MDA-MB-231 breast
MDA-MB-435 = system: MDA-MB-435
MOLT-4 leukemia = system: MOLT-4 leukemia
NCI-H226 lung = system: NCI-H226 lung
NCI-H23 lung = system: NCI-H23 lung
NCI-H460 lung = system: NCI-H460 lung
NCI-H522 lung = system: NCI-H522 lung
NCI/ADR-RES ovarian = system: NCI/ADR-RES ovarian
OVCAR-4 ovarian = system: OVCAR-4 ovarian
OVCAR-5 ovarian = system: OVCAR-5 ovarian
PC-3 prostate = system: PC-3 prostate
RPMI-8226 leukemia = system: RPMI-8226 leukemia
RXF 393 renal = system: RXF 393 renal
SF-268 CNS = system: SF-268 CNS
SF-295 CNS = system: SF-295 CNS
SF-539 CNS = system: SF-539 CNS
SK-MEL-2 melanoma = system: SK-MEL-2 melanoma
SK-MEL-28 melanoma = system: SK-MEL-28 melanoma
SK-MEL-5 melanoma = system: SK-MEL-5 melanoma
SK-OV-3 ovarian = system: SK-OV-3 ovarian
SN12C renal = system: SN12C renal
SNB-19 CNS = system: SNB-19 CNS
SNB-75 CNS = system: SNB-75 CNS
SR leukemia = system: SR leukemia
SW-620 colon = system: SW-620 colon
T-47D breast = system: T-47D breast
U251 CNS = system: U251 CNS
UACC-257 melanoma = system: UACC-257 melanoma
UACC-62 melanoma = system: UACC-62 melanoma
UO-31 renal = system: UO-31 renal

## COc1ccc2c(c1)c(CC(=O)[Se]CCC#N)c(C)n2C(=O)c1ccc(Cl)cc1
786-0 renal
  GI50: 1.92 µM
  TGI: 3.47 µM
A498 renal
  GI50: 1.6 µM
  TGI: 3.08 µM
A549 NSCLC
  GI50: 1.87 µM
  TGI: 3.86 µM
ACHN renal
  GI50: 2.93 µM
  TGI: 7.79 µM
BT-549 breast
  GI50: 1.71 µM
  TGI: 3.35 µM
CAKI-1 renal
  GI50: 1.93 µM
  TGI: 3.5 µM
CCRF-CEM leukemia
  GI50: 2.43 µM
  TGI: > 100 µM
COLO 205 colon
  GI50: 2.26 µM
  TGI: 4.67 µM
DU-145 prostate
  GI50: 2.26 µM
  TGI: 5.93 µM
HCC-2998 colon
  GI50: 3.61 µM
  TGI: 12.8 µM
HCT-116 colon
  GI50: 1.74 µM
  TGI: 3.34 µM
HCT-15 colon
  GI50: 2.17 µM
  TGI: 5.27 µM
HL-60(TB) leukemia
  GI50: 1.2 µM
  TGI: 6.25 µM
HOP-62 NSCLC
  GI50: 1.77 µM
  TGI: 3.46 µM
HOP-92 NSCLC
  GI50: 1.5 µM
  TGI: 3.11 µM
HS 578T breast
  GI50: 2.35 µM
  TGI: 8.79 µM
HT29 colon
  GI50: 2.45 µM
  TGI: 7.39 µM
K-562 leukemia
  GI50: 3.24 µM
  TGI: > 100 µM
KM12 colon
  GI50: 4.13 µM
  TGI: 31 µM
LOX IMVI melanoma
  GI50: 1.54 µM
  TGI: 3.96 µM
M14 melanoma
  GI50: 1.39 µM
  TGI: 3.04 µM
MALME-3M melanoma
  GI50: 1.7 µM
  TGI: 4.36 µM
MCF7 breast
  GI50: 2.56 µM
  TGI: 9.7 µM
MDA-MB-231 breast
  GI50: 2.04 µM
  TGI: 4.97 µM
MDA-MB-435
  GI50: 1.75 µM
  TGI: 3.47 µM
MOLT-4 leukemia
  GI50: 2.9 µM
  TGI: > 100 µM
NCI-H226 lung
  GI50: 1.55 µM
  TGI: 4.01 µM
NCI-H23 lung
  GI50: 2.28 µM
  TGI: 5.86 µM
NCI-H460 lung
  GI50: 2.37 µM
  TGI: 8.38 µM
NCI-H522 lung
  GI50: 1.84 µM
  TGI: 3.54 µM
NCI/ADR-RES ovarian
  GI50: 2.18 µM
  TGI: 6.31 µM
OVCAR-4 ovarian
  GI50: 2.38 µM
  TGI: 6.94 µM
OVCAR-5 ovarian
  GI50: 2.8 µM
  TGI: 8.87 µM
PC-3 prostate
  GI50: 2.54 µM
  TGI: 7.35 µM
RPMI-8226 leukemia
  GI50: 2.51 µM
  TGI: 6.99 µM
RXF 393 renal
  GI50: 1.52 µM
  TGI: 3.17 µM
SF-268 CNS
  GI50: 2.31 µM
  TGI: 5.07 µM
SF-295 CNS
  GI50: 1.8 µM
  TGI: 3.3 µM
SF-539 CNS
  GI50: 2.02 µM
  TGI: 4.36 µM
SK-MEL-2 melanoma
  GI50: 2.39 µM
  TGI: 5.43 µM
SK-MEL-28 melanoma
  GI50: 2.19 µM
  TGI: 5.66 µM
SK-MEL-5 melanoma
  GI50: 2.05 µM
  TGI: 4.18 µM
SK-OV-3 ovarian
  GI50: 3.62 µM
  TGI: 6.33 µM
SN12C renal
  GI50: 2.49 µM
  TGI: 6.67 µM
SNB-19 CNS
  GI50: 1.89 µM
  TGI: 3.58 µM
SNB-75 CNS
  GI50: 1.5 µM
  TGI: 3.72 µM
SR leukemia
  GI50: 3.78 µM
  TGI: > 100 µM
SW-620 colon
  GI50: 3.41 µM
  TGI: 10.4 µM
T-47D breast
  GI50: 9.78 µM
  TGI: 38.8 µM
U251 CNS
  GI50: 1.66 µM
  TGI: 3.11 µM
UACC-257 melanoma
  GI50: 1.6 µM
  TGI: 3.46 µM
UACC-62 melanoma
  GI50: 1.94 µM
  TGI: 4.7 µM
UO-31 renal
  GI50: 1.73 µM
  TGI: 4.2 µM
